From patent US10239933B2, “Compositions and methods for modulating thrombin generation” (The Children's Hospital of Philadelphia, priority 2011, dated 2019)
Entries after “also recorded” stand apart in the source; their conditions may differ. Read-outs that look alike come from different tables or passages of the source. Ends that are not written are not given here.

Experiments:
FV-810 [1] = target: T1, FV-810 (Homo sapiens, UniProt P12259, DEL839-1519); assay: Fluorescence anisotropy, direct binding of OG488-BR to FV-810; conditions: fluorescently labeled FVBR
T1 construct: amino acids 1-28 are a signal peptide that is cleaved and numbering begins at residue 29; made in house
T1 sequence (P12259 with tags, fused parts or gaps DEL839-1519): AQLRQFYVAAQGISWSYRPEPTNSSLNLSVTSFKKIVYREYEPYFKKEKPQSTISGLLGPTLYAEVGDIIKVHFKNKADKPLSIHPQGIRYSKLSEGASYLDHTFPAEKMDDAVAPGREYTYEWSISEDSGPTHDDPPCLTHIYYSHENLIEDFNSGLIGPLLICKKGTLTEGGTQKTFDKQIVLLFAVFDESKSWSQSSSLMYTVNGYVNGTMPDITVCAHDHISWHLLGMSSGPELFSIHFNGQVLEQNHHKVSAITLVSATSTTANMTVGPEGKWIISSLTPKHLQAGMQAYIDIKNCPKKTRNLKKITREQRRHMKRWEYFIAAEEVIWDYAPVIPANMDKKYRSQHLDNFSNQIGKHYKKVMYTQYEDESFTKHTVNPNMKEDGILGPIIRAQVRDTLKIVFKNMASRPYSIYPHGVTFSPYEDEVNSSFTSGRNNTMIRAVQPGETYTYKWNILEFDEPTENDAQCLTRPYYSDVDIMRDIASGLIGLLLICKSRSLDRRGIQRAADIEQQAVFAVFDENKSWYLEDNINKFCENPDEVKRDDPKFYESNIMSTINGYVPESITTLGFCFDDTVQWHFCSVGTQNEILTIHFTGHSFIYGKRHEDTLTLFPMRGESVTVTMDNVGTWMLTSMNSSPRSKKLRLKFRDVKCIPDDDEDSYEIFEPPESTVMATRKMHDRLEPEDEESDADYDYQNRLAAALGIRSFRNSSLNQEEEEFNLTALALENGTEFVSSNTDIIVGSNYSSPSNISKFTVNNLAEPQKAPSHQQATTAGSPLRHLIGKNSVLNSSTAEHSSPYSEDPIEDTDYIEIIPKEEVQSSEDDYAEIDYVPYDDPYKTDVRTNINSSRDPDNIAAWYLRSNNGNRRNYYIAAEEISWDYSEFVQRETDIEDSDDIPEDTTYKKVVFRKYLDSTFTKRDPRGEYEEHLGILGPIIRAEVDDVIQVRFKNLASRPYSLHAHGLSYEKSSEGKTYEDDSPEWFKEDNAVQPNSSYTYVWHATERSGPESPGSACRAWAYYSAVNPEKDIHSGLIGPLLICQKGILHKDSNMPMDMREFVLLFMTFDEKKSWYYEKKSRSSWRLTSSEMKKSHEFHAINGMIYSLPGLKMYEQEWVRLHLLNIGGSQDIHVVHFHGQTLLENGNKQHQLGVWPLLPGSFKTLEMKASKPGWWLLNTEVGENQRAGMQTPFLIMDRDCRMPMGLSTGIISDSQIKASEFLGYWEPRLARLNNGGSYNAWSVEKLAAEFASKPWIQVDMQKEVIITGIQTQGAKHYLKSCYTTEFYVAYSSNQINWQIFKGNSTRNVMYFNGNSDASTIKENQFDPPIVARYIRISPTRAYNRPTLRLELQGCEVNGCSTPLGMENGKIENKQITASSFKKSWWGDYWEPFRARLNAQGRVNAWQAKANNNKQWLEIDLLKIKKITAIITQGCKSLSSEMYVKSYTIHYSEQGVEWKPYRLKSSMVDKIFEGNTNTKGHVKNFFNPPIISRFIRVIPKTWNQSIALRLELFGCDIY

FV-810 [2] = target: T1, FV-810; assay: Displacement of OG488-BR from preformed OG488-BR/FV-810 complex (fluorescence anisotropy); format: binding; conditions: 30 nM OG488-BR, 20 nM FV-810, 50 μM PCPS; for Kd: 25° C.
FXa/FVa = target: T2, FXa/FVa (Homo sapiens, UniProt P12259); assay: Prothrombin activation assay, FXa/FVa; format: biochemical
T2 construct: thrombin rapidly cleaves Factor V at Arg709 to produce heavy chain (HC); rapidly cleaves at Arg1018 and Arg1545 to produce light chain (LC); made in house
T2 sequence (P12259 29-737 limits assumed): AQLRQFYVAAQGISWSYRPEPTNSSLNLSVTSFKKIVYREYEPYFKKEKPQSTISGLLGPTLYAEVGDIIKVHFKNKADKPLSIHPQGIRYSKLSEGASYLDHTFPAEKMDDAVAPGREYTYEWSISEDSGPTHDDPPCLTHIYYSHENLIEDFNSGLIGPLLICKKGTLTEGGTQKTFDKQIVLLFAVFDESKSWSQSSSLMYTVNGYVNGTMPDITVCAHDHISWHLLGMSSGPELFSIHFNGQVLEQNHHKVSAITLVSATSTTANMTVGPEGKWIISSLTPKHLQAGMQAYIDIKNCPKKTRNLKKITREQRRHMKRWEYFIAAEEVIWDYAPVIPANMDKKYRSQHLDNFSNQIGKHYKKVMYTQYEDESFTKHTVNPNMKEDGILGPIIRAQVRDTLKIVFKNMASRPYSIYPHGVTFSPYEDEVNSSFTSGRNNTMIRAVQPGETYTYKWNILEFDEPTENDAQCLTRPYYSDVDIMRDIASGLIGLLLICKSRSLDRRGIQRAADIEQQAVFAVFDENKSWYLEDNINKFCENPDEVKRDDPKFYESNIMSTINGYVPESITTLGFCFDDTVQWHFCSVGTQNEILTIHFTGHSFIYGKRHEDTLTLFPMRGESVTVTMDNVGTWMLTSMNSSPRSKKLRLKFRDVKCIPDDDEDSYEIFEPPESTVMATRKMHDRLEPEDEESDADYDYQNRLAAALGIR
T2 sequence (P12259 1574-2224 limits assumed): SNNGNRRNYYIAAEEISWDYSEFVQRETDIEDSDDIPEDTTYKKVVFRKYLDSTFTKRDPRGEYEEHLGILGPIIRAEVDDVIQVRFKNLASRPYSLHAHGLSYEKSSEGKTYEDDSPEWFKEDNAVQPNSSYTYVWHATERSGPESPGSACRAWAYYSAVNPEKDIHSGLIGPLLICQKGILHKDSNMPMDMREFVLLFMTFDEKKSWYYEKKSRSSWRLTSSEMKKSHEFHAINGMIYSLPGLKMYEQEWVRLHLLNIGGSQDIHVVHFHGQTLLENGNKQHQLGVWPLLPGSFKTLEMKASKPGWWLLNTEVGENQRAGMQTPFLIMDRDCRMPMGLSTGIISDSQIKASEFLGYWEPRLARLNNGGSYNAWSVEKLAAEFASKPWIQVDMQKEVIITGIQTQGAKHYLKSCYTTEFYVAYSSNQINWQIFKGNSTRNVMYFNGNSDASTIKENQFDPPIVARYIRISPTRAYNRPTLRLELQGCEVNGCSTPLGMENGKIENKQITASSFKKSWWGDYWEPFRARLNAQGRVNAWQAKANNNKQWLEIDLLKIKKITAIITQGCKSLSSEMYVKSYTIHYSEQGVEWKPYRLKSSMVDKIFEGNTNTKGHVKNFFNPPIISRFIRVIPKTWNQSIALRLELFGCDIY
Method: Steady-state initial velocities of prothrombin cleavage were determined discontinuously at 25° C. by measuring the initial rate of thrombin formation. Reaction mixtures contained liposomes (75:25, PC:PS), prothrombin, the indicated Factor V variants, and the Factor V peptides FVBR or s46. The reactions were initiated by adding Factor Xa, and thrombin generation was determined at multiple time points by monitoring the cleavage of the chromogenic thrombin substrate S-2238.
Steady-state initial velocities of prothrombin cleavage were determined discontinuously at 25° C. as described (Camire, R. M. (2002) J. Biol. Chem., 277:37863-37870). Reaction mixtures containing PCPS (50 μM), DAPA (3 μM), prothrombin (1.4 μM), and either rFVa or the indicated FV-810 derivatives were incubated with B-domain peptides (0-10 μM) in assay buffer. […] Prothrombin activation was determined using the chromogenic thrombin substrate 52238 as described (Camire, R. M. (2002) J. Biol. Chem., 277:37863-37870).

FV-810 [3] = target: T1, FV-810; assay: Prethrombin-2 activation, competition of BR and FXa for FV-810; format: biochemical; conditions: read-out: Kd for FV-810 from prethrombin-2 activation, model for tight binding
plasma-derived Factor V = target: T3, plasma-derived Factor V (Homo sapiens, UniProt P12259); assay: Proteolytic activation of Factor V by thrombin (SDS-PAGE); format: biochemical; conditions: presence of FVBR
T3 construct: from tissue; host or cells: plasma
T3 sequence (P12259 29-2224): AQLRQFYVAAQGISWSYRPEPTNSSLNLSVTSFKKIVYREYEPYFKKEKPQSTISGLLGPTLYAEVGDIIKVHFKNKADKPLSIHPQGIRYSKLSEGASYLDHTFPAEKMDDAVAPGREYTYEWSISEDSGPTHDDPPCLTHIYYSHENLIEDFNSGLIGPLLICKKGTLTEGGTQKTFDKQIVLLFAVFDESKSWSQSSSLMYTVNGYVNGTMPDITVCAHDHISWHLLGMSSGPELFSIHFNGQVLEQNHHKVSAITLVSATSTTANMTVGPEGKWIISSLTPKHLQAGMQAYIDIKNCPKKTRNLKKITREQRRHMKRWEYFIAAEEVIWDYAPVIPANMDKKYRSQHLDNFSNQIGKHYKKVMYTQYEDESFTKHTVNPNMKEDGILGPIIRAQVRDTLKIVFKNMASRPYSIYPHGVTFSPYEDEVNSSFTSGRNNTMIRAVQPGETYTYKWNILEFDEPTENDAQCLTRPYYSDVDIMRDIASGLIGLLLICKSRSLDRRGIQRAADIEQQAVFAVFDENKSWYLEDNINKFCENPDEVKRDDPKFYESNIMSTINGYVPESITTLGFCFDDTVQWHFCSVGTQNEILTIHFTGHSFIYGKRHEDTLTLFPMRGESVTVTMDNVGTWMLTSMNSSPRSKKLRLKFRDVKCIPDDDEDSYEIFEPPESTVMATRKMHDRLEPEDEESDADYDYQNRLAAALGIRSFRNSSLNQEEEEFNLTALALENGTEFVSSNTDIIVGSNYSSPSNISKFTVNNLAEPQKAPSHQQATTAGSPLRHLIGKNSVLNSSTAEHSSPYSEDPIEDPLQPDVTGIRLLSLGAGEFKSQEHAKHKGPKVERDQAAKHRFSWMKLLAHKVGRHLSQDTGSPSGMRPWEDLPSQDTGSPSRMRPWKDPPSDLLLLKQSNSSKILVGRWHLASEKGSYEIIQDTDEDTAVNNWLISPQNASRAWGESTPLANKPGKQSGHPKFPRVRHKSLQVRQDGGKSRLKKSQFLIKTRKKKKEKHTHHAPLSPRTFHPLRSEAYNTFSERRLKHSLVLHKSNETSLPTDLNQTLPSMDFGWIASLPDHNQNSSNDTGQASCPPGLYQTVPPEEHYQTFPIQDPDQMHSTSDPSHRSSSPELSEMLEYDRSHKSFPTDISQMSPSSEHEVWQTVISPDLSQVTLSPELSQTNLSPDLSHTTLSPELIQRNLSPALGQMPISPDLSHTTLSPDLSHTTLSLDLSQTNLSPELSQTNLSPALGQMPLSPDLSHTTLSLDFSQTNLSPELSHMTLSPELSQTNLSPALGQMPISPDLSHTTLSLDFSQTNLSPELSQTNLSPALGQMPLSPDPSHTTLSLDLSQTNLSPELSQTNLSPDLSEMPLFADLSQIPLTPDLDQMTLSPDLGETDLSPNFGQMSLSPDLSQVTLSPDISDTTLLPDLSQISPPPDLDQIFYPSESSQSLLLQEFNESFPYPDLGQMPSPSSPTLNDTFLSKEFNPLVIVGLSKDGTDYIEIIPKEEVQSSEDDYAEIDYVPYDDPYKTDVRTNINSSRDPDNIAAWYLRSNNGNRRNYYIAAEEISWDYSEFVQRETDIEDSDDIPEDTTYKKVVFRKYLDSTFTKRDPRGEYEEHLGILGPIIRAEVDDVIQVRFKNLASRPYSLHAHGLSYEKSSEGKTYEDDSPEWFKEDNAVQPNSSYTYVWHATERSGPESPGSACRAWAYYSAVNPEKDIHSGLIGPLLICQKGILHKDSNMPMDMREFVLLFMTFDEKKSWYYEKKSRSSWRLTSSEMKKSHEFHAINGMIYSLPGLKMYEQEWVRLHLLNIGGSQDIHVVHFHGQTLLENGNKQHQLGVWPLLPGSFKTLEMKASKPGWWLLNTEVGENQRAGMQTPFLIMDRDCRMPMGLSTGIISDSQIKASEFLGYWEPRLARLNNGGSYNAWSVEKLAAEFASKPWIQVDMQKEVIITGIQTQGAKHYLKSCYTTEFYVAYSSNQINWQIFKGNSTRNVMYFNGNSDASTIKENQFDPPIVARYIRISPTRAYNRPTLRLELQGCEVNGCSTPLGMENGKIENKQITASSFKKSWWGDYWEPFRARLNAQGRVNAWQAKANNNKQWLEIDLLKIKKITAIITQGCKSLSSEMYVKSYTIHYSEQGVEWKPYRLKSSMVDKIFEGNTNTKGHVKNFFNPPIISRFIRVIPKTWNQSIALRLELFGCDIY
Method: Plasma-derived Factor V was incubated with thrombin in the presence or absence of FVBR peptide. Samples were removed and quenched in sample buffer at the indicated times, and the cleavage products were analyzed by SDS-PAGE and Coomassie Brilliant Blue staining.

FV-810^R709Q = target: T4, FV-810^R709Q (Homo sapiens, UniProt P12259, DEL839-1519/R737Q); assay: Clotting assay with FV-810^R709Q; format: biochemical; conditions: prior to thrombin cleavage
T4 construct: amino acids 1-28 are a signal peptide that is cleaved and numbering begins at residue 29; made in house
T4 sequence (P12259 with tags, fused parts or gaps R737Q/DEL839-1519): as the sequence (P12259 with tags, fused parts or gaps DEL839-1519) above, with R709Q counted along it
Method: (§1) Residual clotting activity of Factor V variants was determined by prothrombin time-based clotting assays. Factor V variants were incubated with either the FVBR or s46 peptide, after which the mixtures were mixed with Factor V deficient plasma and clotting times were measured. Where indicated, the Factor V variants were activated by pre-incubation with thrombin prior to addition of the peptides.
(§2) FV derivatives (500 nM) were prepared in assay buffer. Where noted, FV derivatives were pretreated with 10 nM thrombin for 15 minutes at 37° C., followed by the addition of 15 nM hirudin. Samples were diluted to 0.25 nM in assay buffer with 0.1% BSA, and the specific clotting activity was measured in FV-deficient plasma (George King Bio-Medical, Overland Park, Kans.) with TriniCLOT PT Excel (Tcoag, Wicklow, Ireland) as described (Camire et al. (1998) Biochemistry 37:11896-11906). The data are presented as the means±S.D.

FV-810^QQ = target: T5, FV-810^QQ (Homo sapiens, UniProt P12259, DEL839-1519/R1573Q/R737Q); assay: Clotting assay with FV-810^QQ; format: biochemical
T5 construct: amino acids 1-28 are a signal peptide that is cleaved and numbering begins at residue 29; made in house
T5 sequence (P12259 with tags, fused parts or gaps R737Q/DEL839-1519/R1573Q): as the sequence (P12259 with tags, fused parts or gaps DEL839-1519) above, with R709Q, R864Q counted along it
Method: as §1, §2

## SRAWGESTPLANKPGKQSGHPKFPRVRHKSLQVRQDGGKSRLKKSQFLIKTRKKKKEK [FVBR]
FV-810 [1]
  direct binding to FVDT: direct binding
FV-810 [1]; listed as FV basic region peptide
  direct binding to FVDT: binds FVDT
FV-810 [2]
  stoichiometry n, unlabeled BR: 1.0±0.06 mol of BR/mol of FV-810
FV-810 [2]; assuming stoichiometry of 1 mol of FV-810/mol of BR peptide
  Kd: 2.2 ± 0.2 nM
FV-810 [2]; n fitted
  Kd: 2.1 ± 0.2 nM
FXa/FVa
  effect on prothrombin activation by FXa/FVa: did not affect
FXa/FVa; listed as BR peptide
  effect on prothrombin activation by FXa/FVa: no inhibitory effect
FV-810 [3]
  Kd: 34.2 ± 3.6 nM
plasma-derived Factor V
  proteolytic activation of FV by thrombin, cleavage at Arg1545: delays the proteolytic activation; also recorded: delayed cleavage
  thrombin cleavage of FV at Arg709: proceeds normally
FV-810^R709Q
  inhibition of FV-810^R709Q: potently inhibited
FV-810^QQ; following incubation with thrombin
  inhibition of FV-810^QQ: still inhibited
FV-810^QQ; prior to thrombin cleavage
  inhibition of FV-810^QQ: potently inhibited
